In ChEMBL document CHEMBL1130467, “Synthesis and antitumor activity of novel cyclopropapyrroloindole(CPI) derivatives bearing methoxycarbonyl and trifluoromethyl groups” (Bioorg Med Chem Lett, 1997):
Converted amounts (≈) assume the structure as drawn.

Assays:
Colon 26 [1] = assay: Antitumor activity against colon 26 murine adenocarcinoma cells expressed as % body weight change at 0.250 mg/kg compound dose from day 7 to day 12; assay type: functional, Mus musculus; conditions: dose 0.25 mg/kg
Colon 26 [2] = assay: Antitumor activity against colon 26 murine adenocarcinoma cells expressed as % body weight change at 0.500 mg/kg compound dose from day 7 to day 12; assay type: functional, Mus musculus; conditions: dose 0.5 mg/kg
Colon 26 [3] = assay: Antitumor activity against colon 26 murine adenocarcinoma cells expressed as percent TGI (tumor growth inhibition) at 0.0625 mg/kg i.v. compound dose; assay type: functional; conditions: Mus musculus, route intravenous, read-out: TGI
Colon 26 [4] = assay: Antitumor activity against colon 26 murine adenocarcinoma cells expressed as percent TGI (tumor growth inhibition) at 0.250 mg/kg i.v. compound dose; assay type: functional; conditions: Mus musculus, route intravenous, read-out: TGI
Colon 26 [5] = assay: Antitumor activity against colon 26 murine adenocarcinoma cells expressed as % body weight change at 0.0625 mg/kg compound dose from day 7 to day 12; assay type: functional, Mus musculus
Colon 26 [6] = assay: Antitumor activity against colon 26 murine adenocarcinoma cells expressed as maximum dose within 10% body weight loss at 0.500 mg/kg i.v. compound dose; assay type: functional, Mus musculus; conditions: dose 0.5 mg/kg; route intravenous
HeLa = assay: Concentration required for 50% inhibition of human uterine Cervix Carcinoma cells (HeLaS3); assay type: functional, cell-based
Colon 26 [7] = assay: Antitumor activity against colon 26 murine adenocarcinoma cells expressed as percent TGI (tumor growth inhibition) at 0.500 mg/kg i.v. compound dose; assay type: functional; conditions: Mus musculus, route intravenous, read-out: TGI
Colon 26 [8] = assay: Antitumor activity against colon 26 murine adenocarcinoma cells expressed as percent TGI 50 (tumor growth inhibition) at 0.500 mg/kg i.v. compound dose; assay type: functional, Mus musculus; conditions: dose 0.5 mg/kg; route intravenous
Colon 26 [9] = assay: Antitumor activity against colon 26 murine adenocarcinoma cells expressed as percent TGI (tumor growth inhibition) at 0.125 mg/kg i.v. compound dose; assay type: functional; conditions: Mus musculus, route intravenous, read-out: TGI
Colon 26 [10] = assay: Antitumor activity against colon 26 murine adenocarcinoma cells expressed as % body weight change at 0.125 mg/kg compound dose from day 7 to day 12; assay type: functional, Mus musculus
P388 [11] = assay: Percent increase in life span of p388 murine leukemia cells (inoculated i.p. on day 0) as compared to that of untreated group at 0.125 mg/kg i.p. compound dose on day 1; assay type: functional; conditions: Mus musculus, P388, ip, route intraperitoneal
[12] = Percent tumor growth (TGI) inhibition against S180 murine Sarcoma cells( inoculated s.c. into male ICR mice on day 0), as compared to that of untreated group at 0.5 mg/kg i.v. compound dose on day 1; assay type: functional; conditions: Mus musculus, CCRF S-180, route intravenous, read-out: TGI
P388 [13] = assay: Concentration required to inhibit p388 murine leukemia cells by 50%; assay type: functional, cell-based; conditions: Mus musculus
[14] = Percent tumor growth (TGI) inhibition against S180 murine Sarcoma cells( inoculated s.c. into male ICR mice on day 0), as compared to that of untreated group at 0.25 mg/kg i.v. compound dose on day 1; assay type: functional; conditions: Mus musculus, CCRF S-180, route intravenous, read-out: TGI
P388 [15] = assay: Percent increase in life span of p388 murine leukemia cells (inoculated i.p. on day 0) as compared to that of untreated group at 0.25 mg/kg i.p. compound dose on day 1; cured mice= 2/2; assay type: functional; conditions: Mus musculus, P388, ip, route intraperitoneal
Colon 26 [16] = assay: Antitumor activity against colon 26 murine adenocarcinoma cells expressed as percent TGI 50 (tumor growth inhibition) at 0.707 mg/kg i.v. compound dose; assay type: functional, Mus musculus; conditions: route intravenous
Colon 26 [17] = assay: Antitumor activity against colon 26 murine adenocarcinoma cells expressed as maximum dose within 10% body weight loss at 0.707 mg/kg i.v. compound dose; assay type: functional, Mus musculus; conditions: route intravenous
Colon 26 [18] = assay: Antitumor activity against colon 26 murine adenocarcinoma cells expressed as percent TGI (tumor growth inhibition) at 0.707 mg/kg i.v. compound dose; assay type: functional; conditions: Mus musculus, route intravenous, read-out: TGI
Colon 26 [19] = assay: Antitumor activity against colon 26 murine adenocarcinoma cells expressed as % body weight change at 0.707 mg/kg compound dose from day 7 to day 12; assay type: functional, Mus musculus
Colon 26 [20] = assay: Antitumor activity against colon 26 murine adenocarcinoma cells expressed as percent TGI (tumor growth inhibition) at 0.0313 mg/kg i.v. compound dose; assay type: functional; conditions: Mus musculus, route intravenous, read-out: TGI
Colon 26 [21] = assay: Antitumor activity against colon 26 murine adenocarcinoma cells expressed as percent TGI 50 (tumor growth inhibition) at 0.177 mg/kg i.v. compound dose; assay type: functional, Mus musculus; conditions: route intravenous
Colon 26 [22] = assay: Antitumor activity against colon 26 murine adenocarcinoma cells expressed as % body weight change at 0.177 mg/kg i.v. compound dose from day 7 to day 12; assay type: functional, Mus musculus; conditions: route intravenous
P388 [23] = assay: Percent increase in life span of p388 murine leukemia cells (inoculated i.p. on day 0) as compared to that of untreated group at 0.25 mg/kg i.p. compound dose on day 1; cured mice =2/2; assay type: functional; conditions: Mus musculus, P388, ip, route intraperitoneal
Colon 26 [24] = assay: Antitumor activity against colon 26 murine adenocarcinoma cells expressed as % body weight change at 0.0313 mg/kg compound dose from day 7 to day 12; assay type: functional, Mus musculus
Colon 26 [25] = assay: Antitumor activity against colon 26 murine adenocarcinoma cells expressed as percent TGI (tumor growth inhibition) at 0.177 mg/kg i.v. compound dose; assay type: functional; conditions: Mus musculus, route intravenous, read-out: TGI
Colon 26 [26] = assay: Antitumor activity against colon 26 murine adenocarcinoma cells expressed as maximum dose within 10% body weight loss at 0.177 mg/kg i.v. compound dose; assay type: functional, Mus musculus; conditions: route intravenous

| SMILES | IC50 (HeLa) [ng/mL] | inhibition in vivo at 0.125 mg/kg (Colon 26 [9]) [%] | Change in body weight (Colon 26 [10]) [%] | ILS at 0.125 mg/kg (P388 [11]) [%] | inhibition in vivo at 0.5 mg/kg [12] [%] | IC50 (P388 [13]) [ng/mL] | inhibition in vivo at 0.25 mg/kg [14] [%] | also measured |
| --- | --- | --- | --- | --- | --- | --- | --- | --- |
| COC(=O)c1c(C(F)(F)F)[nH]c2c(OC(=O)N3CCN(C)CC3)cc3c(c12)[C@H](CBr)CN3C(=O)c1cc2cc(OC)c(OC)c(OC)c2[nH]1 | 18.8 (≈ 25 nM) | 76 | 1 |  |  |  |  | Change in body weight (Colon 26 [1]): 5%; Change in body weight (Colon 26 [2]): 8%; inhibition in vivo at 0.0625 mg/kg (Colon 26 [3]): 58%; inhibition in vivo at 0.25 mg/kg (Colon 26 [4]): 90%; Change in body weight (Colon 26 [5]): 2%; MTD/ TGI50 (Colon 26 [6]): 11.7; inhibition in vivo at 0.5 mg/kg (Colon 26 [7]): 93%; TGI50 (Colon 26 [8]): 0.0429 |
| COC(=O)c1[nH]c2c(c1C(=O)OC)C13CC1CN(C(=O)c1cc4cc(NC(=O)c5cc6ccccc6o5)ccc4[nH]1)C3=CC2=O (racemic) |  |  |  | 79 | 26 | 0.66 (≈ 1.09 nM) |  |  |
| COC(=O)c1[nH]c2c(c1C(=O)OC)C13CC1CN(C(=O)c1cc4cc(NC(=O)c5cc6ccccc6[nH]5)ccc4[nH]1)C3=CC2=O (racemic) |  |  |  | 102 | 44 | 0.31 (≈ 0.514 nM) |  |  |
| COC(=O)c1c(C)[nH]c2c1[C@@]13C[C@@H]1CN(C(=O)c1cc4cc(OC)c(OC)c(OC)c4[nH]1)C3=CC2=O (racemic) |  |  |  | 80 | 81 | 0.34 (≈ 0.692 nM) |  |  |
| COC(=O)c1c(C(F)(F)F)[nH]c2c1C13CC1CN(C(=O)c1cc4cc(NC(=O)c5cc6ccccc6[nH]5)ccc4[nH]1)C3=CC2=O (racemic) |  |  |  |  |  | 0.86 (≈ 1.4 nM) | 84 | ILS at 0.25 mg/kg (P388 [15]): 2% |
| COC(=O)c1c(C(F)(F)F)[nH]c2c1C13CC1CN(C(=O)c1cc4cc(OC)ccc4[nH]1)C3=CC2=O (racemic) |  |  |  | 69 |  | 0.23 (≈ 0.474 nM) | 54 |  |
| COC(=O)c1c(C(F)(F)F)[nH]c2c1C13CC1CN(C(=O)c1cc4cc(OC)c(OC)c(OC)c4[nH]1)C3=CC2=O (racemic) |  |  |  | 94 | 92 | 0.24 (≈ 0.44 nM) |  |  |
| COC(=O)c1c(C)[nH]c2c(OC(=O)N3CCN(C)CC3)cc3c(c12)[C@H](CBr)CN3C(=O)c1cc2cc(OC)c(OC)c(OC)c2[nH]1 [PIBROZELESIN] | 18.1 (≈ 25.9 nM) | 26 | 1 |  |  |  |  | TGI50 (Colon 26 [16]): 0.209 mg/kg; Change in body weight (Colon 26 [1]): -2%; MTD/ TGI50 (Colon 26 [17]): 3.4; Change in body weight (Colon 26 [2]): -1%; inhibition in vivo at 0.25 mg/kg (Colon 26 [4]): 62%; inhibition in vivo at 0.707 mg/kg (Colon 26 [18]): 90%; Change in body weight (Colon 26 [19]): -9%; inhibition in vivo at 0.5 mg/kg (Colon 26 [7]): 85% |
| COC(=O)c1c(C(F)(F)F)[nH]c2c1C13CC1CN(C(=O)c1cc4cc(NC(=O)c5cc6ccccc6o5)ccc4[nH]1)C3=CC2=O (racemic) | 0.365 (≈ 0.594 nM) | 87 | -4 |  |  | 0.53 (≈ 0.862 nM) | 83 | inhibition in vivo at 0.0313 mg/kg (Colon 26 [20]): 39%; inhibition in vivo at 0.0625 mg/kg (Colon 26 [3]): 68%; TGI50 (Colon 26 [21]): 0.041; Change in body weight (Colon 26 [22]): -3%; Change in body weight (Colon 26 [5]): -3%; ILS at 0.25 mg/kg (P388 [23]): 2%; Change in body weight (Colon 26 [24]): 0%; inhibition in vivo at 0.177 mg/kg (Colon 26 [25]): 85%; MTD/ TGI50 (Colon 26 [26]): 4.3 |
